Test system: 843126-344-R-J1-PDC complex spheroid viability
Test: Anticancer human tumor 843126-344-R-J1-PDC patient-derived melanoma cell line growth inhibition [POLQ]
Conditions: for IC50: curve of first compound; for viability, T/C: stronger effect = lower value
How it was run: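 PDC + HUVEC + MSC complex spheroids; POLQ inhibitors ± partner drugs; top conc. at/near clinical Cmax, else 10 microM (SN-38 1 microM), half-log dilutions; 37 degrees C, 5% CO2.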

[1] = second compound 0.0316 µM, first compound 0.0316 µM
[2] = second compound 0.0316 µM, first compound 0.1 µM
[3] = second compound 0.0316 µM, first compound 0.316 µM
[4] = second compound 0.0316 µM, first compound 1 µM
[5] = second compound 0.0316 µM, first compound 3.16 µM
[6] = second compound 0.0316 µM, first compound 10 µM
[7] = second compound 0.1 µM, first compound 0.0316 µM
[8] = second compound 0.1 µM, first compound 0.1 µM
[9] = second compound 0.1 µM, first compound 0.316 µM
[10] = second compound 0.1 µM, first compound 1 µM
[11] = second compound 0.1 µM, first compound 3.16 µM
[12] = second compound 0.1 µM, first compound 10 µM
[13] = second compound 0.316 µM, first compound 0.0316 µM
[14] = second compound 0.316 µM, first compound 0.1 µM
[15] = second compound 0.316 µM, first compound 0.316 µM
[16] = second compound 0.316 µM, first compound 1 µM
[17] = second compound 0.316 µM, first compound 3.16 µM
[18] = second compound 0.316 µM, first compound 10 µM
[19] = second compound 1 µM, first compound 0.0316 µM
[20] = second compound 1 µM, first compound 0.1 µM
[21] = second compound 1 µM, first compound 0.316 µM
[22] = second compound 1 µM, first compound 1 µM
[23] = second compound 1 µM, first compound 3.16 µM
[24] = second compound 1 µM, first compound 10 µM
[25] = second compound 3.16 µM, first compound 0.0316 µM
[26] = second compound 3.16 µM, first compound 0.1 µM
[27] = second compound 3.16 µM, first compound 0.316 µM
[28] = second compound 3.16 µM, first compound 1 µM
[29] = second compound 3.16 µM, first compound 3.16 µM
[30] = second compound 3.16 µM, first compound 10 µM
[31] = second compound 10 µM, first compound 0.0316 µM
[32] = second compound 10 µM, first compound 0.1 µM
[33] = second compound 10 µM, first compound 0.316 µM
[34] = second compound 10 µM, first compound 1 µM
[35] = second compound 10 µM, first compound 3.16 µM
[36] = second compound 10 µM, first compound 10 µM
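Wherever viability, T/C is given: spheroids exposed to drugs for seven days before readout.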

CCc1cc2c(N3CCc4c(cc(Cn5ccnc5)cc4-c4cn(C)nc4C(F)(F)F)C3=O)cc(C)nc2c(OC)n1 + COC1C(OC(N)=O)C(O)C(Oc2ccc3c(O)c(NC(=O)c4ccc(O)c(CC=C(C)C)c4)c(=O)oc3c2C)OC1(C)C
IC50 (second compound 0.0316 µM): > 10 µM
IC50 (second compound 0.1 µM): 8.91 µM
IC50 (second compound 0.316 µM): > 10 µM
IC50 (second compound 1 µM): > 10 µM
IC50 (second compound 3.16 µM): > 10 µM
IC50 (second compound 10 µM): > 10 µM
viability, T/C [1]: 103%
viability, T/C [2]: 78%
viability, T/C [3]: 89.6%
viability, T/C [4]: 74.5%
viability, T/C [5]: 74.3%
viability, T/C [6]: 59.8%
viability, T/C [7]: 90.6%
viability, T/C [8]: 87.1%
viability, T/C [9]: 89%
viability, T/C [10]: 81.1%
viability, T/C [11]: 64.6%
viability, T/C [12]: 48.4%
viability, T/C [13]: 96.2%
viability, T/C [14]: 80.6%
viability, T/C [15]: 72.4%
viability, T/C [16]: 68.2%
viability, T/C [17]: 74.2%
viability, T/C [18]: 56.4%
viability, T/C [19]: 76.9%
viability, T/C [20]: 67.4%
viability, T/C [21]: 69.4%
viability, T/C [22]: 68.5%
viability, T/C [23]: 72.4%
viability, T/C [24]: 71.3%
viability, T/C [25]: 91.1%
viability, T/C [26]: 77.4%
viability, T/C [27]: 76.9%
viability, T/C [28]: 62.5%
viability, T/C [29]: 72.7%
viability, T/C [30]: 61.8%
viability, T/C [31]: 82.1%
viability, T/C [32]: 96.1%
viability, T/C [33]: 84.2%
viability, T/C [34]: 66.2%
viability, T/C [35]: 58.5%
viability, T/C [36]: 62.6%

CCc1cc2c(N3CCc4c(cc(Cn5ccnc5)cc4-c4cn(C)nc4C(F)(F)F)C3=O)ccnc2c(OC)n1 + COC1C(OC(N)=O)C(O)C(Oc2ccc3c(O)c(NC(=O)c4ccc(O)c(CC=C(C)C)c4)c(=O)oc3c2C)OC1(C)C
IC50 (second compound 0.0316 µM): > 10 µM
IC50 (second compound 0.1 µM): 8.32 µM
IC50 (second compound 0.316 µM): > 10 µM
IC50 (second compound 1 µM): > 10 µM
IC50 (second compound 3.16 µM): > 10 µM
IC50 (second compound 10 µM): > 10 µM
viability, T/C [1]: 94.1%
viability, T/C [2]: 88.3%
viability, T/C [3]: 87.3%
viability, T/C [4]: 78.4%
viability, T/C [5]: 62.2%
viability, T/C [6]: 60.8%
viability, T/C [7]: 82%
viability, T/C [8]: 99.8%
viability, T/C [9]: 92.2%
viability, T/C [10]: 70.4%
viability, T/C [11]: 63%
viability, T/C [12]: 46.5%
viability, T/C [13]: 99.5%
viability, T/C [14]: 78%
viability, T/C [15]: 78%
viability, T/C [16]: 73.1%
viability, T/C [17]: 76.6%
viability, T/C [18]: 62%
viability, T/C [19]: 84.5%
viability, T/C [20]: 93.8%
viability, T/C [21]: 78.2%
viability, T/C [22]: 80.6%
viability, T/C [23]: 65%
viability, T/C [24]: 57.2%
viability, T/C [25]: 78.4%
viability, T/C [26]: 99.7%
viability, T/C [27]: 87.2%
viability, T/C [28]: 72.6%
viability, T/C [29]: 67.6%
viability, T/C [30]: 61%
viability, T/C [31]: 80.8%
viability, T/C [32]: 79.7%
viability, T/C [33]: 79.5%
viability, T/C [34]: 78.5%
viability, T/C [35]: 61.7%
viability, T/C [36]: 66.1%

O=C(Nc1ccc(O)c(NS(=O)(=O)c2ccc(F)cc2)c1)c1ccc(-c2ccccc2)cc1 + COC1C(OC(N)=O)C(O)C(Oc2ccc3c(O)c(NC(=O)c4ccc(O)c(CC=C(C)C)c4)c(=O)oc3c2C)OC1(C)C
IC50 (second compound 0.0316 µM): > 10 µM
IC50 (second compound 0.1 µM): > 10 µM
IC50 (second compound 0.316 µM): > 10 µM
IC50 (second compound 1 µM): > 10 µM
IC50 (second compound 3.16 µM): > 10 µM
IC50 (second compound 10 µM): > 10 µM
viability, T/C [1]: 118%
viability, T/C [2]: 105%
viability, T/C [3]: 100%
viability, T/C [4]: 119%
viability, T/C [5]: 99%
viability, T/C [6]: 69.4%
viability, T/C [7]: 94.3%
viability, T/C [8]: 93.8%
viability, T/C [9]: 119%
viability, T/C [10]: 99.6%
viability, T/C [11]: 87.9%
viability, T/C [12]: 61.9%
viability, T/C [13]: 92.8%
viability, T/C [14]: 98.3%
viability, T/C [15]: 113%
viability, T/C [16]: 95.5%
viability, T/C [17]: 91.8%
viability, T/C [18]: 73.1%
viability, T/C [19]: 90.9%
viability, T/C [20]: 85.3%
viability, T/C [21]: 91.9%
viability, T/C [22]: 98.9%
viability, T/C [23]: 112%
viability, T/C [24]: 89.3%
viability, T/C [25]: 95.5%
viability, T/C [26]: 93.9%
viability, T/C [27]: 92.9%
viability, T/C [28]: 93.8%
viability, T/C [29]: 89.4%
viability, T/C [30]: 76.3%
viability, T/C [31]: 82.6%
viability, T/C [32]: 78.8%
viability, T/C [33]: 97.1%
viability, T/C [34]: 94.5%
viability, T/C [35]: 86.8%
viability, T/C [36]: 79.7%
